# Literature values in PMC5408581, “Using X-ray Crystallography, Biophysics, and Functional Assays to Determine the Mechanisms Governing T-cell Receptor Recognition of Cancer Antigens” (Journal of Visualized Experiments : JoVE, 2017).
# Where two headings read alike, the source gives them in different places.
# How the values were obtained:
# [1] = molecular target: PMEL17 TCR (TRAV21 TRBV7-3); design: method as in PMID 26917722; conditions: SPR, CM5 chip, 25 °C, table reprinted
# [2] = molecular target: gp100 TCR (TRAV17 TRBV19); design: method as in PMID 26917722; conditions: SPR, CM5 chip, 25 °C, table reprinted; for Kd: read-out: gp100 TCR TRAV17 TRBV19 Affinity KD
# [3] = peptide refolded with biotin-tagged HLA-A*0201/β2m and coupled via streptavidin (~500-600 RU), ten serial dilutions of soluble TCR, 30 µL/min, equilibrium KD by nonlinear fit
sequence,measurement,setting,value
"YLAPGPVTA [YLE-3A, with HLA-A*0201 called A2-YLE-3A]",PMEL17 TCR TRAV21 TRBV7-3 Affinity KD,[1]; [3],No binding
same,gp100 TCR TRAV17 TRBV19 Affinity KD,[2]; [3],No binding
"YLEPAPVTA [YLE-5A, with HLA-A*0201 called A2-YLE-5A]",Kd,"[1]; read-out: PMEL17 TCR TRAV21 TRBV7-3 Affinity KD, peptide-HLA-A*0201 coupled via streptavidin, soluble TCR injected, bound given in mM",> 1 mM
same,Kd,"[2]; peptide-HLA-A*0201 coupled via streptavidin, soluble TCR injected, bound given in mM",> 1 mM
YLEPGPVTA [presented by HLA-A*0201 it is called A2-YLE],Kd,[2]; [3],0.0265 ± 0.0023 mM
"YLEPGPVTV [YLE-9V, with HLA-A*0201 called A2-YLE-9V]",Kd,[2]; [3],0.0219 ± 0.0024 mM
